Reference: PMC9238271, “The quorum sensing peptide EntF* promotes colorectal cancer metastasis in mice: a new factor in the host-microbiome interaction” (BMC Biology, 2022)
Values joined by “and” are separate entries in the source; they are usually repeats but may differ in a detail not shown here. Equal values may be shown once.

Columns and labels:
[1] = In vitro metabolization of EntF: formation of EntF* in colon tissue homogenate; format: in vitro ADME, C57BL/6 female mice
Method: Krebs-Henseleit (KH) buffer (Sigma-Aldrich, Belgium) was prepared by dissolving the powdered medium in 900 mL water while stirring. Once the powder was completely dissolved, 0.3790 g CaCl2•2H2O and 2.098 g NaHCO3 were added to the solution. NaOH or HCl was used to adjust the pH to 7.4. The solution was brought to final volume (1000 mL) with ultrapure water.
For the preparation of colon tissue homogenates for EntF in vitro metabolization study, colons were collected from two untreated C57BL/6 female mice after cervical dislocation. After cleaning and rinsing the organs with ice-cold KH buffer, colons were cut into small pieces and transferred into 15 mL tubes containing 5 mL ice-cold KH buffer. Colon tissues were homogenized for 1 min. Larger particles were allowed to sediment for about 30 min at 5 °C, and then approximately 2 mL of the middle layer of each tube was transferred into a 2 mL Eppendorf tube and stored at − 35 °C. Before use, the homogenate was diluted to a final protein concentration of 0.6 mg/mL.
To avoid the absorption of EntF* onto plasticware and glassware, all tubes and containers were coated with a BSA-based anti-adsorption solution before use.
Five hundred microliters of tissue homogenate were mixed with 400 μL of pre-warmed KH buffer. Then, 100 μL of KH buffer (blank) or 1 mg/mL EntF peptide solution (test) were added to the diluted homogenate and incubated at 37 °C. […] After centrifugation at 16,000g for 30 min at 5 °C, supernatants were analyzed by LC1-MS1 for EntF* quantification.
EntF* was detected and quantified on a Waters Acquity® UPLC H-class system, connected to a Waters Xevo™ TQ-S triple quadrupole mass spectrometer with electrospray ionization (operated in positive ionization mode). Autosampler tray and column oven were kept at 10 ± 5 °C and 60 ± 5 °C, respectively. Chromatographic separation was achieved on a Waters Acquity® UPLC BEH Peptide C18 column (300 Å, 1.7 μm, 2.1 mm × 100 mm). The mobile phases consisted of 93/2/5 water/acetonitrile/DMSO (V/V/V) containing 0.1% formic acid (mobile phase A) and 2/93/5 water/acetonitrile/DMSO (V/V/V) containing 0.1% formic acid (mobile phase B), and the flow rate was set to 0.5 mL/min. A 10-μL aliquot from each sample was injected. The gradient program started with 80% of mobile phase A for 1 min, followed by a linear gradient to 40% of mobile phase A for 3.5 min. Gradient was then changed to 14.2% mobile phase A at 5 min, followed by a 1 min equilibration, before starting conditions were applied. EntF* retention time was between 4.25 and 4.45 min.
An optimized capillary voltage of 3.00 kV, a cone voltage of 20.00 V, and a source offset of 50.0 V were used. Acquisition was done in the MRM mode. The selected precursor ion for EntF* was m/z 865.7 with two selected product ions at m/z 202.08 (36 eV, b2 fragment) as quantifier and m/z 315.17 (31 eV, b3 fragment) as qualifier.

[2] = test system: tumor nodules in the lungs; assay: Orthotopic mouse model: histopathological evaluation of lungs; format: in vivo, female athymic nude mice (Swiss nu/nu)
Method: Six-week-old female athymic nude mice (Swiss nu/nu) were anesthetized, and a minimally invasive midline laparotomy was performed to localize the cecum. The cecum was then gently pulled out, and luciferase-transfected HCT-8/E11 cells (1 × 10^6 cells) in 20 μL serum-free DMEM medium with Matrigel (1:1) were injected into the cecal wall. Before implantation, cells were treated with EntF* (10^2 nM), Phr0662 (10^2 nM), vehicle (PBS), or TGFα positive control (0.1 μg mL^−1) solutions for 5 days. The cecum was then carefully placed back into the abdominal cavity and the surgical incision was closed with two layers of sutures with PDS 6-0. […] Once a week, mice were examined for tumor growth and metastases using bioluminescent imaging with the IVIS Lumina II (Perkin Elmer, Belgium) after i.p. injection with 200 μL luciferin (150 mg kg^−1). After 6 weeks, mice were euthanized using cervical dislocation, and the liver, diaphragm, lungs, cecum, duodenum, and peritoneum were macroscopically examined for the presence of tumor nodules. Liver and lung tissues were then fixed in formalin for 24 h and stored in 70% ethanol for maximum 3 days before embedding in paraffin. Next, a hematoxylin and eosin (H&E) staining was performed on 8 μm sections, and 3 sections per mouse were visualized using microscopy. Slides from tumor-bearing mice were analyzed by two blinded, independent investigators using the scoring system described in Additional file 5: Table S3. In case of differences, slides were scored by a third blinded, independent investigator for consensus.

[3] = Colon, Time 0, initial concentration EntF 31.82 µM
[4] = Colon, Time 1, initial concentration EntF 31.82 µM
[5] = Colon, Time 5, initial concentration EntF 31.82 µM
[6] = Colon, Time 10, initial concentration EntF 31.82 µM
[7] = Colon, Time 30, initial concentration EntF 31.82 µM
[8] = Colon, Time 60, initial concentration EntF 31.82 µM
[9] = Colon, Time 120, initial concentration EntF 31.82 µM
[10] = Colon, Time 180, initial concentration EntF 31.82 µM

CC(C)C[C@@H]1NC(=O)[C@H](CO)NC(=O)[C@H](Cc2ccccc2)NC(=O)[C@H](C(C)C)NC(=O)[C@@H](NC(=O)[C@H](CCC(=O)O)NC(=O)[C@@H](NC(=O)[C@H](CC(C)C)NC(=O)[C@H](CC(N)=O)NC(=O)[C@@H](N)CO)C(C)C)CSSC[C@@H](C(=O)N[C@@H](CC(N)=O)C(=O)O)NC(=O)[C@H](CCCCN)NC(=O)[C@H](CCCCN)NC(=O)[C@H](Cc2ccccc2)NC1=O (single isomer, unassigned) [EntF*]
Stability of EntF* in Colon tissue ([1]; Colon tissue): EntF* is stable in Colon tissue
EntF* Conc [1, 3]: 0.00 µM
EntF* without metabolisation, Conc [1, 3]: 0.00 µM
EntF*/EntF % [1, 3]: 0.00%
EntF* Conc [1, 4]: 0.0286 µM
EntF*/EntF % [1, 4]: 0.09%
EntF* Conc [1, 5]: 0.20 µM
EntF*/EntF % [1, 5]: 0.62%
EntF* Conc [1, 6]: 0.50 µM
EntF*/EntF % [1, 6]: 1.56%
EntF* Conc [1, 7]: 0.94 µM
EntF*/EntF % [1, 7]: 2.94%
EntF* Conc [1, 8]: 2.03 µM
EntF*/EntF % [1, 8]: 6.39%
EntF* Conc [1, 9]: 3.15 µM
EntF*/EntF % [1, 9]: 9.89%
EntF* Conc [1, 10]: 5.17 µM
EntF*/EntF % [1, 10]: 16.25%
formation rate of EntF* (from EntF) in colonic tissues ([1]; mouse colon tissue homogenate (0.6 mg/mL protein) 500 μL + 400 μL Krebs-Henseleit buffer pH 7.4 + 100 μL 1 mg/mL EntF, 37 °C, aliquots 0-180 min, LC1-MS1, mean ± SEM, n = 7): 0.11 ± 0.01 % min^−1
Formation rate, Colon tissue, Average ([1]; mouse colon tissue homogenate, Krebs-Henseleit buffer pH 7.4, 37 °C, LC1-MS1, average of X1-X7): 0.11 %*min-1
Formation rate, Colon tissue ([1]; mouse colon tissue homogenate, Krebs-Henseleit buffer pH 7.4, 37 °C, LC1-MS1, replicate X1): 0.0898 %*min-1
Formation rate, Colon tissue ([1]; mouse colon tissue homogenate, Krebs-Henseleit buffer pH 7.4, 37 °C, LC1-MS1, replicate X2): 0.1249 %*min-1
Formation rate, Colon tissue ([1]; mouse colon tissue homogenate, Krebs-Henseleit buffer pH 7.4, 37 °C, LC1-MS1, replicate X3): 0.1563 %*min-1
Formation rate, Colon tissue ([1]; mouse colon tissue homogenate, Krebs-Henseleit buffer pH 7.4, 37 °C, LC1-MS1, replicate X4): 0.0981 %*min-1
Formation rate, Colon tissue ([1]; mouse colon tissue homogenate, Krebs-Henseleit buffer pH 7.4, 37 °C, LC1-MS1, replicate X5): 0.1065 %*min-1
Formation rate, Colon tissue ([1]; mouse colon tissue homogenate, Krebs-Henseleit buffer pH 7.4, 37 °C, LC1-MS1, replicate X6): 0.0824 %*min-1
Formation rate, Colon tissue ([1]; mouse colon tissue homogenate, Krebs-Henseleit buffer pH 7.4, 37 °C, LC1-MS1, replicate X7): 0.0903 %*min-1
number of tumor nodules in the lungs compared to the vehicle ([2]; 6 weeks of treatment, H&E histopathological score, n = 30 EntF*, n = 8 PBS): significantly higher number of tumor nodules
Histology scoring LUNGS, Scoring person 1 (ND) ([2]; individual samples, one line per sample): 3 and 4 and 0 and 1
Histology scoring LUNGS, conclusion per group ([2]; per group): 1
